The source of these data is US20180000778A1, “SMALL MOLECULE ANTAGONISTS OF DUSP5 AND METHODS OF USE” (THE MEDICAL COLLEGE OF WISCONSIN, INC., priority 2015, published 2018).

What all share (format): biochemical
One test deals with T1, DUSP5 PD(WT) (Homo sapiens, UniProt Q16690).
T1 construct: hexa-histidine (N); made in house; host or cells: E. coli BL21(DE3)
T1 sequence (Q16690 178-319 limits assumed): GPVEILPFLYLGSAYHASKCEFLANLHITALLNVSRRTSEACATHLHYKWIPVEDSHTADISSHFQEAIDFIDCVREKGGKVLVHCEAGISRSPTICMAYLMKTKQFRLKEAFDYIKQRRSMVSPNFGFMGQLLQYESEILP
Briefly: pNPP phosphatase activity assay with DUSP5 PD(WT). The source says:
p-Nitrophenolphosphatase (pNPP) Activity Assay.
To measure enzymatic activity of the DUSP5 PD and the inhibitory capacity of selected molecules, an in vitro phosphatase assay was developed based on previous studies (27). In this assay, DUSP5 PD dephosphorylates the substrate p-nitrophenol phosphate (pNPP, Sigma Aldrich), yielding p-nitrophenolate, which absorbs at 405 nm with an extinction coefficient of 18,000 M-1 cm-1.
Thus, an increase in absorbance at 405 nm corresponds to the turnover of pNPP top-nitrophenolate. The assay was initially optimized in 1 mL quartz cuvettes, then was subsequently optimized for and validated in a 96-well plate format. All IC50 values were obtained using the 96-well plate assay format (see below). The assay buffer contained 100 mM Tris, 100 mM sodium chloride, 5 mM magnesium chloride, and 1 mM dithiothreitol (DTT) at pH 7.5. The pNPP substrate was prepared as a 50 mM stock by dissolving the solid substrate in assay buffer. The DUSP5 PD and pNPP were assayed initially in a cuvette (1 mL total volume) and initial velocities were fitted to the Michaelis-Menten equation (1)
where v is the initial velocity, Vmax is the maximum velocity, Km is the Michaelis constant, and [S] is the concentration of pNPP. Data were fitted using a nonlinear least squares fit to eq. 1, with GraphPad Prism 6 software.
For the 96-well plate validation assay, sodium orthovanadate (Sigma Aldrich) was utilized as a positive control for inhibition (Swarup et al., Biochem Biophys Res Commun. 1982; 107:1104-9.) at a final concentration of 10 μM, to completely block activity. All plate assays were performed in standard 96-well clear bottom plates (Thermo Scientific Nunc) with a total assay volume of 200 μL, using a SpectraMax M5 Microplate Reader (Molecular Devices). The plate validation assay was performed with replicate columns of positive control wells, negative control wells and blank wells. Blank columns contained only buffer and pNPP. Negative control (uninhibited) contained buffer, pNPP, and DUSP5 PD; and, positive control contained the same components, but also contained 10 μM sodium orthovanadate. The plate was then shaken and allowed to equilibrate in the spectrophotometer at 25° C. for 30 min. After incubation, 4 μL of a […] was dispensed into appropriate wells utilizing a single-channel pipette. This produced a final enzyme concentration of 1 μM. Before a read was taken, the plate was shaken for five seconds. The initial rate for the DUSP5 PD reaction was linear for approximately 90 min; and, the plate was kept in the spectrophotometer at 25° C. for an additional 80 min after the kinetic read. The endpoint reading was subsequently taken at 90 min after initiation of reaction. Slopes from the kinetic read, as well as single-point absorbance values at the 90-minute endpoint read, were then averaged. For blank wells and positive control wells, both slope values (continuous assay) and single point absorbance values (fixed time assay) were approximately zero, as expected. Standard deviations were calculated and a Z′ value (Zhang et al., J Biomol Screening. 1999; 4:67-73) subsequently determined using the following equation: […]
IC50 values were obtained using the assay described above, in 96 well plates. The maximum inhibitor concentration screened in any plate was […] and the minimum was 1.5 μM. The IC50 plate was designed so that the first column of wells served as blanks, with wells containing only buffer and substrate. The second column of wells functioned as the plate negative control, with each well containing buffer, substrate and enzyme. The remaining wells in the plate contained buffer, substrate, enzyme, and varying amounts of inhibitor, with inhibitor concentration increasing from left to right across the plate. Data points were collected in triplicate, and inhibitor concentrations were chosen to provide data equally spread on a logarithmic scale. […]

Another test deals with CDC25B (Homo sapiens, UniProt P30305). As to the kind of experiment: Phosphatase profiling, Biomol Green. The settings on record: 30 μM, triplicate. As for the experimental part:
(§1) Assays were performed to profile compound CSDDD2320 against 21 phosphatase targets at 1 concentration (30 μM) in triplicate measurements. The aim was to identify whether the compound can affect the activity of the various phosphatase targets selected.
(§2) The PTPN6 (SHP1), PTPRF (LAR), PP1A, PP1B, PP2A, PTPN12(PTP-PEST), PTPN11(SHP2), CDC25A, CDC25B, CDC25C, PP2Ca, and PP2Cg phosphatase activity was determined by performing assays at 37° C. for 15 minutes in a final volume of 50 μl according to the following assay reaction recipe:
(§3) Component 1. 10 μl of diluted active protein phosphatase
(§4) Component 2. 5 μl of 1 mM tyrosine phosphopeptide-2 substrate (for PTPN6, PTPRF, PTPN12, and PTPN11) or threonine phosphopeptide substrate (for PP1A, PP1B, PP2A and PP2Cg) or PI(3,4,5)P3 substrate (for PTEN) or OMFP substrate (for CDC25A, CDC25B and CDC25C)
(§5) Component 3. 25 μl of phosphatase assay buffer
(§6) Component 4. 10 μl of compound (150 μM) or 10% DMSO
(§7) The assay was started by incubating the reaction mixture at 37° C. for 15 minutes. After the 15 minutes incubation period, the assay was terminated by the addition of 100 μl of Biomol Green reagent. The absorbance of the reaction solution was measured in a spectrophotometer at 650 nm. Blank control was set up that included all the assay components except the addition of the tyrosine phosphopeptide-2 substrate or related substrate (replace with equal volume of phosphatase assay buffer). The corrected activity for various phosphatase targets was determined by removing the blank control value.

The subject of a further test is PP2A. As to the kind of experiment: Phosphatase profiling, Biomol Green. The conditions noted are these: 30 μM, triplicate; negative = inhibition. As for the experimental part:
as §1, §2, §3, §4, §5, §6, §7

In another test the target is PP2Ca (Homo sapiens, UniProt P35813). Briefly: Phosphatase profiling, Biomol Green. The settings on record: 30 μM, triplicate; negative = inhibition. As for the experimental part:
as §1, §2, §3, §4, §5, §6, §7

Another test deals with PTPN12 (PTP-PEST) (Homo sapiens, UniProt Q05209). As to the kind of experiment: Phosphatase profiling, Biomol Green. The settings on record: 30 μM, triplicate; negative = inhibition. As for the experimental part: as §1, §2, §3, §4, §5, §6, §7
For a further test, the target named is CDC25C (Homo sapiens, UniProt P30307). Briefly: Phosphatase profiling, Biomol Green. The conditions noted are these: 30 μM, triplicate; positive = activation. As for the experimental part: as §1, §2, §3, §4, §5, §6, §7
Another test addresses PP1B (Homo sapiens, UniProt P62140). Briefly: Phosphatase profiling, Biomol Green. The conditions noted are these: 30 μM, triplicate; negative = inhibition. How it is done:
as §1, §2, §3, §4, §5, §6, §7

The next test deals with PP1A (Homo sapiens, UniProt P62136). As to the kind of experiment: Phosphatase profiling, Biomol Green. The settings on record: 30 μM, triplicate; negative = inhibition. How it is done: as §1, §2, §3, §4, §5, §6, §7
The target in another test is PTPN11 (SHP2) (Homo sapiens, UniProt Q06124). Briefly: Phosphatase profiling, Biomol Green. The settings on record: 30 μM, triplicate; positive = activation. How it is done:
as §1, §2, §3, §4, §5, §6, §7

Sequence of CDC25B (P30305 whole entry, species assumed): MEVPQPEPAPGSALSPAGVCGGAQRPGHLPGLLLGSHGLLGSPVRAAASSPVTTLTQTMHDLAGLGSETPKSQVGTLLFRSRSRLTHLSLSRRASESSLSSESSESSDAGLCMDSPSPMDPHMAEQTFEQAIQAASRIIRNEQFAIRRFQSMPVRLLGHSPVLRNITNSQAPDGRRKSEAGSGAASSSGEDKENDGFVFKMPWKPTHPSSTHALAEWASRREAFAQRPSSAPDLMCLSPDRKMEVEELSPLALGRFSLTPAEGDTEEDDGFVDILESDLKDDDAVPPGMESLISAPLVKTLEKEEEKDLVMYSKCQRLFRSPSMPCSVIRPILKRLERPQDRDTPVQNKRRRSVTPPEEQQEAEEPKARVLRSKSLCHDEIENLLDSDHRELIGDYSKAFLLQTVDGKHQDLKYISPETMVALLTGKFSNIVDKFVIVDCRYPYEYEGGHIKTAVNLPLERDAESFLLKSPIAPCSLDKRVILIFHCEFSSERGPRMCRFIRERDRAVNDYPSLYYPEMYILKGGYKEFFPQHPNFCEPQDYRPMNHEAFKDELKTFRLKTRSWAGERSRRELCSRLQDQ
Sequence of PP1A (P62136 whole entry, species assumed): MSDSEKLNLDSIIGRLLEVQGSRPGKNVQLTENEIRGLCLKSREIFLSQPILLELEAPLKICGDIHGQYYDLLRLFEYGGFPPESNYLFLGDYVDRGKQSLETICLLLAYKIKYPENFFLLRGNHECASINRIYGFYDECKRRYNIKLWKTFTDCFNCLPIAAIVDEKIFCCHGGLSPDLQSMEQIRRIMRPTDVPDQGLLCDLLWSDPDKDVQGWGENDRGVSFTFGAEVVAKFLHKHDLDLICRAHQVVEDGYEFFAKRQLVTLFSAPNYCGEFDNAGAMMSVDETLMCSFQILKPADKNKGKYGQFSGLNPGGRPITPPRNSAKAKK
Sequence of PTPN12 (PTP-PEST) (Q05209 whole entry, species assumed): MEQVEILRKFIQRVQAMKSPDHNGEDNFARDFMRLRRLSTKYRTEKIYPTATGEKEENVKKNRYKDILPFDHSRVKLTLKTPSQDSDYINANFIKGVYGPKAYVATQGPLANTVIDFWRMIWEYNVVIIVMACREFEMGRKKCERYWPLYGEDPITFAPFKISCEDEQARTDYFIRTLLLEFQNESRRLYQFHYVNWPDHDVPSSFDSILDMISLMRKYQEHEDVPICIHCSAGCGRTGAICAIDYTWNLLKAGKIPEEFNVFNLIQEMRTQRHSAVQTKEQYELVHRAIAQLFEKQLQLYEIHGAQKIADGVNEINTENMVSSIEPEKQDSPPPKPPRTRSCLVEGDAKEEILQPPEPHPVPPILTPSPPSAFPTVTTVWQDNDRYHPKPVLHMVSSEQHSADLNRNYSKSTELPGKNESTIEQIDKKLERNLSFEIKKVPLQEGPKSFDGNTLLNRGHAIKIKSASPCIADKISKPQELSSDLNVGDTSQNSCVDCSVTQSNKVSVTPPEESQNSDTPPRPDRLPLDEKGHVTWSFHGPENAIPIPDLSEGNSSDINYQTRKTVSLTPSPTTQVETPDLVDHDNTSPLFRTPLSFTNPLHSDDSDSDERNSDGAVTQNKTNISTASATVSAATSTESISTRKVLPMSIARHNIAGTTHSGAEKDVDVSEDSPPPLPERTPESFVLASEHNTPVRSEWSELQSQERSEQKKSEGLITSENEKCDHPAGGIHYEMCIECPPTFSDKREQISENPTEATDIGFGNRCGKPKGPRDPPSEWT
Sequence of PP2Ca (P35813 whole entry): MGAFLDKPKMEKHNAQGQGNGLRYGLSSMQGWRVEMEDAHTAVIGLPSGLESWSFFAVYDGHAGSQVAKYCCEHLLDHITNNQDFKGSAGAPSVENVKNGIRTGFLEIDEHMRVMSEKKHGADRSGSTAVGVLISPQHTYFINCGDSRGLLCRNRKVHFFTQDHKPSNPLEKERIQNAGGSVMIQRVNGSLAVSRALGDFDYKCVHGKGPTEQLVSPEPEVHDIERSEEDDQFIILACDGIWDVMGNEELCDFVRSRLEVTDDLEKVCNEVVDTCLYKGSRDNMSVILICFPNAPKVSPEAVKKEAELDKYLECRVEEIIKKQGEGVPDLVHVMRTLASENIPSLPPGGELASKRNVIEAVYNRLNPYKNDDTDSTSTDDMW
Sequence of CDC25C (P30307 whole entry, species assumed): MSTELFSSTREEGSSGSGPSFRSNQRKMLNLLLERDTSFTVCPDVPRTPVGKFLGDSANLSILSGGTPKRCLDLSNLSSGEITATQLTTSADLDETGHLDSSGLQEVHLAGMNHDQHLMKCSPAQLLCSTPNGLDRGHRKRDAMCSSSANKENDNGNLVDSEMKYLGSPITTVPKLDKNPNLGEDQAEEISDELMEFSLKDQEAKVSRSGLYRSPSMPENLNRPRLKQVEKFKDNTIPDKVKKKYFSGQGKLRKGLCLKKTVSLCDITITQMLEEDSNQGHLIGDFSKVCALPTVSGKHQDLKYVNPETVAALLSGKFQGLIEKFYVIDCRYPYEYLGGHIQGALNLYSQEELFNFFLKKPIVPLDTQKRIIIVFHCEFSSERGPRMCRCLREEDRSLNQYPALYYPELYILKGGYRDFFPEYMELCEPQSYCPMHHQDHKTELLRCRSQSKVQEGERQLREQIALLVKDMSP
Sequence of PTPN11 (SHP2) (Q06124 whole entry, species assumed): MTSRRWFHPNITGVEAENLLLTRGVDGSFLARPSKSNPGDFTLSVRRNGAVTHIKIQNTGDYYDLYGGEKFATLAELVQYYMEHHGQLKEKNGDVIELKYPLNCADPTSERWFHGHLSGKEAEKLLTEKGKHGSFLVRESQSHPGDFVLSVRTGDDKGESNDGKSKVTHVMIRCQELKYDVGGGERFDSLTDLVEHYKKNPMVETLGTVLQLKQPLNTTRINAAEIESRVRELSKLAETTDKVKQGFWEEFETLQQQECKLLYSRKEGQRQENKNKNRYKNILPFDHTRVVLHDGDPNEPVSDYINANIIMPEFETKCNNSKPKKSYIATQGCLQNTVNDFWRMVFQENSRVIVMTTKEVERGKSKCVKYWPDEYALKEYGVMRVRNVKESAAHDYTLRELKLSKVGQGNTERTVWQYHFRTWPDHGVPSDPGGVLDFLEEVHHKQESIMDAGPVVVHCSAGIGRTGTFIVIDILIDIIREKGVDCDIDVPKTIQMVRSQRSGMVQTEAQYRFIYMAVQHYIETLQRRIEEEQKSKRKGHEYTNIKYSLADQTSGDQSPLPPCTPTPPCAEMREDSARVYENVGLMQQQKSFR
Sequence of PP1B (P62140 whole entry, species assumed): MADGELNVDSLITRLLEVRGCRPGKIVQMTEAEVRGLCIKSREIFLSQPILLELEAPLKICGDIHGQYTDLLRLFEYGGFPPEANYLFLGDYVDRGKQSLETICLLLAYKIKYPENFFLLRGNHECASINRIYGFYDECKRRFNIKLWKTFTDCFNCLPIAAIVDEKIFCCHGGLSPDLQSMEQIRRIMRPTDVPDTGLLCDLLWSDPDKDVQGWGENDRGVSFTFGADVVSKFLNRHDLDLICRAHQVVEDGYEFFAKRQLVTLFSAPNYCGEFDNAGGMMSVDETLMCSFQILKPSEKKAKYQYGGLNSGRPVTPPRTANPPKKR

In the case of `O=S(=O)([O-])c1ccc2[nH]c3c(S(=O)(=O)[O-])cc(S(=O)(=O)[O-])cc3c2c1.[Na+].[Na+].[Na+]` [RR505, Carbazole-1,3,6-trisulfonic acid, Trisodium Salt], on DUSP5 PD(WT) (enzyme inhibition (FIG. 3)), the “IC50's, range in words” value is given as “mM range”.
By IC50 is commonly meant the concentration at which inhibition is half-maximal. Regarding `O=S(=O)(O)c1cc(O)c2c(S(=O)(=O)O)cccc2c1` [RR527], the IC50 on DUSP5 PD(WT) (pNPP assay with DUSP5 PD) turned out to be 0.484 mM; against DUSP5 PD(WT) (phosphatase domain alone, pNPP), 33 mM. The “% Change (activity change compared to control)” value on CDC25B is listed as 0%; in the test on PP2A it was −3%; on PP2Ca it was −7%; at PTPN12 (PTP-PEST), −1%; at CDC25C, 4%; on PP1B, −1%. Moreover, the “% Change (activity change compared to control)” value at PP1A was −3%; at PTPN11 (SHP2), 4%.
